Measurements as given in US20260258113A1, “BETA GLOBIN MIMETIC PEPTIDES AND THEIR USE” (THE UNITED STATES OF AMERICA, AS REPRESENTED BY THE …, priority 2022, published 2026).
Where “and” joins values, the source holds several entries; their conditions need not be identical. Identical values can stand only once. Entries after “also recorded” stand apart in the source; their conditions may differ.

Experiments:
[1] = system: human omental arteries; assay: Isolated artery pressure myography: vasoconstriction to phenylephrine after alpha globin mimetic or control peptide, then L-NAME; assay type: cell-based; design: key to Top (Mean) / Bottom (Mean): fitted inner diameter, % of baseline; details: for Bottom (Mean) / Top (Mean): four parameter logistic fit of inner diameter (percentage of baseline) vs phenylephrine; for maximal constriction to phenylephrine (4-PL minimum): pairs of omental arteries from five donors; for effect on vasoconstriction response to PE: omental arteries incubated with peptide, 5 μmol/L
Procedure: To test this hypothesis, ex vivo pressure myography was performed on pairs of omental arteries obtained from each of five donors in response to escalating doses of the alpha adrenoreceptor agonist phenylephrine (responses fit with four parameter logistic regression best-fit values, FIGS. 6A-6B).
Isolated artery pressure myography: The pressure myography methodology utilized here for omental arteries is consistent with published protocols for assessing reactivity of mesenteric articles using a DMT pressure myograph (Shahid and Buys, JoVE J Vis Exp. 7.76:50328, 2013). Arteries […] in diameter were dissected from omental tissue on ice and transferred to the culture myograph wells (DMT-USA CM204); arterial inner diameter was measured by video microscope (DMT-USA) with digital calipers (MyoVIEW, DMT-USA).
All arteries used developed at least 20% myogenic tone after pressurization, consistent with standards for pressure myography (Shahid and Buys, JoVE J Vis Exp. 7.76:50328, 2013; Butcher et al., JoVE J Vis Exp. 28.62:3674, 2012; Jadeja et al., JoVE J Vis Exp. 6.101:e50997, 2015). Arteries were assessed for vasoconstriction response to the alpha-1-adrenoreceptor agonist phenylephrine (PE) [10^−9-10^−3] M (Sigma-Aldrich). Dose response to PE was then assessed after incubation with either the alpha globin mimetic peptide HbαX or a control peptide (5 μmol/L in KH buffer), and again following incubation with the NOS inhibitor No-Nitro-L-arginine methyl ester HCl (L-NAME, 10^−4 M)(Sigma-Aldrich).

[2] = system: isolated human omental arteries; assay: Isolated artery pressure myography: vasoconstriction to phenylephrine after beta globin mimetic peptides; assay type: cell-based; details: peptide 5 μmol/L for 45 minutes at 37° C., ex vivo
Procedure: Collection of omental arteries: Human omental tissue was collected from patients during clinically indicated abdominal operations at the NIH Clinical Center. All patients provided informed consent for tissue procurement on IRB-approved protocol 13-C-0176 (NCT01915225). Tissue removed by the surgeon was immediately submerged in cold 4° C. Krebs-HEPES (KH) buffer (pH 7.4) and kept on ice during dissection and artery isolation. Small arteries were dissected away from the tissue in cold Krebs-HEPES (KH) buffer (Boston BioProducts).
Identification of beta globin mimetic peptides: Tetrameric hemoglobin was docked with dimer eNOS oxygenase domain using molecular docking algorithms (HADDOCK2). […]
Isolated artery pressure myography: The pressure myography methodology utilized here for omental arteries is consistent with published protocols for assessing reactivity of mesenteric articles using a DMT pressure myograph. […] Digital video calipers were used to measure in the inner diameter of cannulated arteries (MyoVIEW, DMT-USA) at two positions, and the average of both measurements was recorded.
All arteries developed at least 20% myogenic tone after pressurization, consistent with standards for pressure myography. Arteries were assessed for vasoconstriction response to the alpha-1-adrenoreceptor agonist phenylephrine (PE, Sigma-Aldrich) at successively higher doses ranging from 10^−9 to 10^−3 molar. […]

[3] = system: canine resistance arteries; assay: Pressure myography of canine arteries: phenylephrine dose escalation after Hbb-1; assay type: cell-based
Procedure: For these studies, omental tissue was removed from a canine laboratory animals soon after euthanasia. Mesenteric arteries 100-300 um in diameter were dissected out of the tissue and cannulated on glass pipettes. The arteries were incubated in a physiologic buffer solution (Krebs-Henseleit) at 37 degrees Celsius and pressured to 60 mm Hg. To assess vasoreactivity, escalating doses of phenylephrine were added to the incubation bath and artery diameter was measured using video microscopy with edge detection and digital calipers. The artery was incubated with 5 uM Hbb-1 peptide (including the tat cell permeability sequence) for 45 minutes. A second phenylephrine dose escalation was applied, and vasoconstriction was measured. The entire experiment was repeated with a second animal donor. In FIG. 20, artery diameter is presented as a percentage of baseline resting diameter at 60 mm Hg of pressure. The means and standard error of the mean were plotted for each condition and phenylephrine dose.

[4] = target: T1, association of alpha globin with eNOS (Mus musculus, UniProt P70313); details: mice; cited from earlier work
T1 construct: host or cells: mice (in vivo), endogenous proteins of resistance arteries
T1 sequence (P70313 2-1202 limits assumed): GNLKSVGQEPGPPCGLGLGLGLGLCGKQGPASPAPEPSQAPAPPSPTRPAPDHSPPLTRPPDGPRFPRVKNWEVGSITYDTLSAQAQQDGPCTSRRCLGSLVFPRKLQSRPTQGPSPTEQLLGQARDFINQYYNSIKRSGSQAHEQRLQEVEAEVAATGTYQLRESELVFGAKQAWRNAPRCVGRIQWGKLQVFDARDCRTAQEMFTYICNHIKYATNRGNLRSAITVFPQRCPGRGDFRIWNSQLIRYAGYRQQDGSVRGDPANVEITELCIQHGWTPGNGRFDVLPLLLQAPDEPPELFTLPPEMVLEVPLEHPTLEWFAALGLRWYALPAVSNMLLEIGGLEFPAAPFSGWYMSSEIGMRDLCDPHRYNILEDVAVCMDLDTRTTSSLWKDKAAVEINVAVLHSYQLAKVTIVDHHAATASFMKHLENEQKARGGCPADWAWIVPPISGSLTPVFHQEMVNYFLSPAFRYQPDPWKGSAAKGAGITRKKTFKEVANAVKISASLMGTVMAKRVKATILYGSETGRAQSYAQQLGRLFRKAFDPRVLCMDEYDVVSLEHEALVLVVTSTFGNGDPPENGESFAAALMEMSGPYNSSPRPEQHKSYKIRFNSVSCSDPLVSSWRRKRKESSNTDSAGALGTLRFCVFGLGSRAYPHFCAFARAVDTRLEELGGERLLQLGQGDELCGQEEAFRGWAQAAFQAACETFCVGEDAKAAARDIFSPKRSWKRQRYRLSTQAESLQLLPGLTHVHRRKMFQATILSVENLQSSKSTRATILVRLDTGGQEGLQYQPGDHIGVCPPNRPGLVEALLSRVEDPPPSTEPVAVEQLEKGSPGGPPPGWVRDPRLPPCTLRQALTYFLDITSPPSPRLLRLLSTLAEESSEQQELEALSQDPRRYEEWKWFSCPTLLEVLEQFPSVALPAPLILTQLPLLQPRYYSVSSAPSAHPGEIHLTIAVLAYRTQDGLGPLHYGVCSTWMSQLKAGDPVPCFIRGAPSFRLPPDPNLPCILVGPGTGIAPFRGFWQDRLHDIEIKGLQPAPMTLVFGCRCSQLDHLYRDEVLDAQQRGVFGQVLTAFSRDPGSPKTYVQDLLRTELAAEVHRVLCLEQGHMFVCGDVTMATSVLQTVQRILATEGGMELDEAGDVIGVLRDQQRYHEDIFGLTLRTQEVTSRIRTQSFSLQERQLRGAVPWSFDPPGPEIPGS

[5] = n = 5 human donors, peptide 5 μmol/L, L-NAME 10^-4 M
[6] = log of phenylephrine concentration, four parameter logistic fit, n = 5 human donors, peptide 5 μmol/L, L-NAME 10^-4 M
[7] = four parameter logistic fit, n = 5 human donors, peptide 5 μmol/L, L-NAME 10^-4 M

**Q.** With `COC(=O)[C@@H](N)CCCN=C(N)N[N+](=O)[O-].Cl` [L-NAME, No-Nitro-L-arginine methyl ester HCl] as the molecule, how does the “effect of L-NAME on vasoconstriction to PE” value ([1]; control peptide-treated arteries) read?
**A.** The value was “no effect”.

**Q.** And the “effect of L-NAME on vasoconstriction to PE” value ([1]; mimetic peptide-treated arteries)?
**A.** The value was “vasoconstriction was restored”.

**Q.** And the “phenylephrine-induced vasoconstriction after incubation with L-NAME” value ([1]; mimetic peptide-treated arteries, L-NAME 10^-4 M)?
**A.** The value was 41.9±2.0 % of baseline.

**Q.** What does the source list for `CNC[C@H](O)c1cccc(O)c1` [Phenylephrine (PE), phenylephrine]?
**A.** IC50 ([1]; Homo sapiens, log of phenylephrine concentration, four parameter logistic fit, n = 5 human donors, peptide 5 μmol/L, L-NAME 10^-4 M): 1000 nM; Bottom (Mean) [1, 5]: 46.11 and 39.08; Top (Mean) [1, 5]: 100.30 and 100.12; LogIC50 (Mean) [1, 6]: −5.891; maximal constriction to phenylephrine (4-PL minimum) ([1]; peptide 5 μmol/L): 39.1±3.2 % of baseline diameter and 46.1±5.5 % of baseline diameter

**Q.** Which “effect on human arterial vasoconstriction responses to phenylephrine” value [2] does the source give for TPEEKSAVTALWGK [Hbb-1] here?
**A.** The value was “can inhibit vasoconstriction”.

**Q.** What about the “effect on human arterial vasoconstriction responses to phenylephrine” value ([2]; listed as Hbb-Peptide-1) of the same molecule?
**A.** The value was “potent vasodilatory effects”.

**Q.** What about the “increase of phenylephrine dose needed to achieve the same degree of vasoconstriction” value ([3]; 5 uM Hbb-1 peptide (including tat sequence) for 45 minutes, two animal donors) of the same molecule?
**A.** Its value is “approximately 100 times”.

**Q.** And the “effect on phenylephrine-induced vasoconstriction in canine arteries” value ([3]; 5 uM Hbb-1 peptide for 45 minutes)?
**A.** Its value is “can inhibit vasoconstriction; also recorded: shifted the vasoconstrictive response to phenylephrine to the right; also recorded: inhibits phenylephrine-induced vasoconstriction”.

**Q.** Which “Bottom (Mean)” value [1, 5] does the source give for YGRKKRRQRRRFPYFSTKLTT [control peptide] here?
**A.** The value was 45.78.

**Q.** And the “Top (Mean)” value [1, 5]?
**A.** Its value is 100.40.

**Q.** What about the “HillSlope (Mean)” value [1, 7] of the same molecule?
**A.** The value was −0.623.

**Q.** And the “LogIC50 (Mean)” value [1, 6]?
**A.** Its value is −6.020.

**Q.** What about the “effect on vasoconstriction response to PE” value [1] of the same molecule?
**A.** Its value is “no significant difference”.

**Q.** What about the “maximal constriction to phenylephrine (4-PL minimum)” value ([1]; peptide 5 μmol/L) of the same molecule?
**A.** The value was 39.1±3.2 % of baseline diameter.

**Q.** Which alpha-1-adrenergic vasoconstriction [4] does the source give for YGRKKRRQRRRLSFPTTKTYF [HbαX] here?
**A.** The alpha-1-adrenergic vasoconstriction was “reduced alpha-1-adrenergic vasoconstriction”.

**Q.** And the angiotensin-2 induced hypertension [4]?
**A.** Its angiotensin-2 induced hypertension is “protection against angiotensin- 2 induced hypertension”.

**Q.** And the “association of alpha globin with eNOS in vivo” value [4]?
**A.** The value was “disrupt the association of alpha globin with eNOS”.

**Q.** What about the “mean arterial blood pressure” value [4] of the same molecule?
**A.** The value was “lower mean arterial blood pressure”.

**Q.** And the “Bottom (Mean)” value [1, 5]?
**A.** Its value is 64.59.

**Q.** What about the “Top (Mean)” value [1, 5] of the same molecule?
**A.** The value was 99.93.

**Q.** What about the “HillSlope (Mean)” value [1, 7] of the same molecule?
**A.** Its value is −0.549.

**Q.** What about the “disruption of NO-scavenging in human vessels” value ([1]; human vessels) of the same molecule?
**A.** Its value is “potent disruptor of NO-scavenging”.

**Q.** What about the “LogIC50 (Mean)” value [1, 6] of the same molecule?
**A.** The value was −5.575.

**Q.** What about the “effect on vasoconstriction response to PE” value ([1]; listed as alpha globin mimetic peptide) of the same molecule?
**A.** The value was “significantly inhibited the vasoconstriction response to PE; also recorded: diminished this constriction”.

**Q.** What about the “maximal constriction to phenylephrine (4-PL minimum)” value ([1]; peptide 5 μmol/L) of the same molecule?
**A.** Its value is 64.6±1.6 % of baseline diameter.
